Results from patent publication US6686352B2, “Substituted imidazo [1,5-a] pyrimido [5,4-d] [1] benzazepine derivatives” (Hoffmann-La Roche Inc., priority 2001, dated 2004).

Tested on: not given
Test: not given
Details: not given
Compound `CCOC(=O)c1ncnc2c1Cc1cnc(Cc3ccc(OC)cc3)n1-c1cc(Br)ccc1-2` has a melting point of 180 °C.
`CCCc1ncc2n1-c1cc(C)ccc1-c1ncnc(C(=O)OCC)c1C2` showed a melting point of 250 °C.
`CCOC(=O)c1ncnc2c1Cc1cnc(Cc3ccc(OC)cc3)n1-c1cc(Cl)ccc1-2` gave a melting point of 192 °C.
With `Cc1ncc2n1-c1ccccc1-c1ncnc(-c3nc(C4CC4)no3)c1C2` the melting point was 216 to 218 °C.
In the case of `CCOC(=O)c1ncnc2c1Cc1cnc(Cc3c[nH]c4ccccc34)n1-c1cc(Cl)ccc1-2`, the melting point is reported as 120 °C.
`CCOC(=O)c1ncnc2c1Cc1cnc(C(C)(C)C)n1-c1cc(F)ccc1-2` gave a melting point of 233 °C.
`Cc1ncc2n1-c1ccccc1-c1ncnc(C(=O)O)c1C2` showed a melting point of 285 to 287 °C.
For `CCOC(=O)c1ncnc2c1Cc1cnc(C(C)(C)C)n1-c1cc(Cl)ccc1-2`, the melting point was 180 °C.
With `CCOC(=O)c1ncnc2c1Cc1cnc(Cc3c[nH]c4ccccc34)n1-c1cc(F)ccc1-2` the melting point was 230 °C.
In the case of `CCOC(=O)c1ncnc2c1Cc1cnc(C(C)(C)C)n1-c1ccccc1-2`, the melting point is reported as 250 °C.
`CCOC(=O)c1ncnc2c1Cc1cnc(Cc3c[nH]c4ccccc34)n1-c1ccccc1-2` gave a melting point of 120 °C.
Work on `CCOC(=O)c1ncnc2c1Cc1cnc(Cc3c[nH]c4ccccc34)n1-c1cc(C)c(C)cc1-2` yielded a melting point of 135 °C.
For `CCCc1ncc2n1-c1cc(C)c(C)cc1-c1ncnc(C(=O)OCC)c1C2`, the melting point was 213 °C.
`CCOC(=O)c1ncnc2c1Cc1cnc(-c3ccccc3)n1-c1ccccc1-2` showed a melting point of 244 to 246 °C.
`CCOC(=O)c1ncnc2c1Cc1cnc(Cc3ccc(OC)cc3)n1-c1cc(C)c(C)cc1-2` gave a melting point of 150 °C.
In the case of `CCOC(=O)c1ncnc2c1Cc1cnc(C(C)C)n1-c1cc(Cl)ccc1-2`, the melting point is reported as 192 °C.
`CCOC(=O)c1ncnc2c1Cc1cnc(C)n1-c1cc(C)ccc1-2` gave a melting point of 200 °C.
`CCOC(=O)c1ncnc2c1Cc1cnc(C3CC3)n1-c1cc(Cl)ccc1-2` showed a melting point of 230 °C.
Work on `CCOC(=O)c1ncnc2c1Cc1cncn1-c1cc(Br)ccc1-2` yielded a melting point of 210 °C.
In the case of `CCOC(=O)c1ncnc2c1Cc1cnc(C3CC3)n1-c1cc(C)ccc1-2`, the melting point is reported as 250 °C.
Work on `CCOC(=O)c1ncnc2c1Cc1cnc(C3CC3)n1-c1cc(Br)ccc1-2` yielded a melting point of 230 °C.
In the case of `CCOC(=O)c1ncnc2c1Cc1cnc(Cc3ccc(OC)cc3)n1-c1cc(F)ccc1-2`, the melting point is reported as 185 °C.
With `CCOC(=O)c1ncnc2c1Cc1cnc(C)n1-c1cc(C)c(C)cc1-2` the melting point was 210 °C.

Target: T1, GABA A receptor α5β3γ2 (α5 subunit) (Rattus norvegicus, UniProt P18508+P19969)
T1 construct: expressed in transfected cells; host or cells: SF9 insect cells (membrane preparation)
Test: [3H]flumazenil ([3H]Ro 15-1788) competition binding assay, membranes of SF9 cells expressing rat GABA A receptors
Details: displacement of [3H]Ro 15-1788 (0.5 nM for α5), 1 hour at 4° C., means of two determinations; especially preferred compounds
Procedure: The affinity of compounds at GABA A receptor subtypes was measured by competition for [^3H]flumazenil ([^3H]Ro 15-1788) (85 Ci/mmol; Amersham) binding to SF9 cells expressing rat receptors of composition α1β3γ2, α2β3γ2, α3β3γ2 and α5β3γ2.
Cell pellets were suspended in Krebs-tris buffer (4.8 mM KCl, 1.2 mM CaCl2, 1.2 mM MgCl2, 120 mM NaCl, 15 mM Tris; pH 7.5; binding assay buffer), homogenized by polytron for ca. 15 sec on ice and centrifuged in UZ for 30 min at 4° C. (100000 g; rotor: TFT 4594=[…]). The cell pellets were re-suspended in Krebs-tris buffer and homogenized by polytron for ca. 15 sec on ice. Aliquots of 1 ml were prepared, protein was measured (Bradford method) and the resulting membrane aliquots were stored at −70° C.
Radioligand binding assays were carried out in a volume of 200 μL (96-well plates) which contained 100 μL of cells, [^3H]Ro 15-1788 at a concentration of 1 nM for (α1, α2, α3 subunits and 0.5 nM for α5 subunits and the test compound in the range of 10^−10−3×10^−6 M. Nonspecific binding was defined by 10^−5 M diazepam and typically represented less than 5% of the total binding. Assays were incubated to equilibrium for 1 hour at 4° C. and harvested onto GF/C uni-filters (Packard) by filtration using a Packard harvester and washing with ice-cold wash buffer (50 mM Tris; pH 7.5). After drying, filter-retained radioactivity was detected by liquid scintillation counting. Ki values were calculated using Excel-Fit (Microsoft) and are the means of two determinations.
With “6-Cyclopropyl-3-fluoro-9H-imidazo[1,5-a]pyrimido[5,4-d][1]benzazepine-10-carboxylic Acid Ethyl Ester [Example 11]” the Ki was 7.8 nM.
In the case of “6-Methyl-9H-imidazo[1,5-a]pyrimido[5,4-d][1]benzazepine-10-carboxylic Acid Ethyl Ester [Example 29]”, the Ki is reported as 3.8 nM.
For “6-[(4-Methoxyphenyl)Methyl]-9H-imidazo[1,5-a]pyrimido[5,4-d][1]benzazepine-10-carboxylic Acid Ethyl Ester [Example 6]”, the Ki was 13.8 nM.
For “6-(1-Methylethyl)-9H-imidazo [1,5-a]pyrimido[5,4-d][1]benzazepine-10-carboxylic Acid Ethyl Ester [Example 3]”, the Ki was 8.9 nM.
Compound “9H-Imidazo[1,5-a]pyrimido[5,4-d][1]benzazepine-10-carboxylic Acid Ethyl Ester [Example 1]” has a Ki of 3.7 nM.
Compound “3-Fluoro-6-propyl-9H-imidazo[1,5-a]pyrimido[5,4-d][1]benzazepine-10-carboxylic Acid Ethyl Ester [Example 9]” has a Ki of 8 nM.
With “6-Propyl-9H-imidazo[1,5-a]pyrimido[5,4-d][1]benzazepine-10-carboxylic Acid Ethyl Ester [Example 2]” the Ki was 5.5 nM.
“3-Fluoro-6-(1-methylethyl)-9H-imidazo[1,5-a]pyrimido[5,4-d][1]benzazepine-10-carboxylic Acid Ethyl Ester [Example 10]” gave a Ki of 11.2 nM.
“3-Bromo-6-methyl-9H-imidazo[1,5-a]pyrimido[5,4-d][1]benzazepine-10-carboxylic Acid Ethyl Ester [Example 22]” gave a Ki of 12.5 nM.
“3-Fluoro-6-methyl-9H-imidazo[1,5-a]pyrimido[5,4-d][1]benzazepine-10-carboxylic Acid Ethyl Ester [Example 8]” showed a Ki of 4.6 nM.
Compound “6-Cyclopropyl-9H-imidazo[1,5-a]pyrimido[5,4-d][1]benzazepine-10-carboxylic Acid Ethyl Ester [Example 4]” has a Ki of 7.6 nM.
